Broadly, the melting point is the temperature of the solid-liquid transition.

Consider 21 molecules from patent US20240067654A1 (Kinoxis Therapeutics Pyt Ltd, priority 2020, published 2024).

For series [1], the target named is T1, OTR (Homo sapiens, UniProt P30559).
T1 sequence (P30559 1-389): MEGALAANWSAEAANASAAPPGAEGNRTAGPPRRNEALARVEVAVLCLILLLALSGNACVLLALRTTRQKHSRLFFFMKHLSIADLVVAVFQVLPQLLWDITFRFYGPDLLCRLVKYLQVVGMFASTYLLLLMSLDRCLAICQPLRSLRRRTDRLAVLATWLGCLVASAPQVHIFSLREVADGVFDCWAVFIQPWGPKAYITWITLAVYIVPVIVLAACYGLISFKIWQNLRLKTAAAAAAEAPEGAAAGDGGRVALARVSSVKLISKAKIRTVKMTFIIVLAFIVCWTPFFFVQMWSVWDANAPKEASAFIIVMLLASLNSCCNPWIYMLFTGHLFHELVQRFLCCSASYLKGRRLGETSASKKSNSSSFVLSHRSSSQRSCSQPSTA
Nature of the series: Tritiated OT (3H-OT) displacement. Also on record: expressed in transfected cells; host or cells: HEK cells, Flp-In TREX system (Invitrogen). The class given is binding. To be noted: Kd concentration of 3H-OT; compound at a concentration up to 10 μM.

Series [2] deals with T1, OTR. Kind of series: Modulation of oxytocin-evoked intracellular IP1 and Ca2+ increase: OT dose-response in presence and absence of 10 μM compound. To be noted: for change in OT potency seen in OT dose-response curves (figure legend): 10 μM of compound; for Relative Potency: OT potency with 10 μM compound relative to OT only.
Procedure: These assays were performed using commercial kits (IP1 HTRF from Cisbio and Fluo-4AM from Invitrogen), according to the manufacturer's protocol.
The target of series [3] is T1, OTR. Nature of the series: Calcium (Ca2+) influx induced by OT in the presence of various concentrations of compound 3 (HEK assay). The format is cell-based. Also on record: expressed in transfected cells; host or cells: HEK cells, Flp-In TREX system (Invitrogen).
For another series, the target named is rat V1aR (Rattus norvegicus, UniProt P30560). To be noted: cited from earlier work.
rat V1aR, sequence (P30560 whole entry): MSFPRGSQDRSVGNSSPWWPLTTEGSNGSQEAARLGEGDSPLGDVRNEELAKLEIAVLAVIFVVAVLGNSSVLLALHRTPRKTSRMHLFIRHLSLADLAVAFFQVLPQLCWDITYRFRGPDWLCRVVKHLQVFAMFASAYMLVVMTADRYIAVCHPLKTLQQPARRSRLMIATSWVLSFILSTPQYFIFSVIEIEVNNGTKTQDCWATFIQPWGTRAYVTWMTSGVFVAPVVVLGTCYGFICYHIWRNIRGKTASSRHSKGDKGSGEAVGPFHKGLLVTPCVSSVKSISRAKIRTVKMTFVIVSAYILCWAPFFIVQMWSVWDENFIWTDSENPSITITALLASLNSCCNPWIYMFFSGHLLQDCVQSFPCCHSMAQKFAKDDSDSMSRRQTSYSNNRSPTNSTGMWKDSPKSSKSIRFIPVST
The next series has as its target human V1aR (Homo sapiens, UniProt P37288). To be noted: cited from earlier work.
The conditions of series [4]: rat, in vivo; cited from earlier work.
The conditions of series [5]: in vivo; cited from earlier work.

human V1aR, sequence (P37288 whole entry): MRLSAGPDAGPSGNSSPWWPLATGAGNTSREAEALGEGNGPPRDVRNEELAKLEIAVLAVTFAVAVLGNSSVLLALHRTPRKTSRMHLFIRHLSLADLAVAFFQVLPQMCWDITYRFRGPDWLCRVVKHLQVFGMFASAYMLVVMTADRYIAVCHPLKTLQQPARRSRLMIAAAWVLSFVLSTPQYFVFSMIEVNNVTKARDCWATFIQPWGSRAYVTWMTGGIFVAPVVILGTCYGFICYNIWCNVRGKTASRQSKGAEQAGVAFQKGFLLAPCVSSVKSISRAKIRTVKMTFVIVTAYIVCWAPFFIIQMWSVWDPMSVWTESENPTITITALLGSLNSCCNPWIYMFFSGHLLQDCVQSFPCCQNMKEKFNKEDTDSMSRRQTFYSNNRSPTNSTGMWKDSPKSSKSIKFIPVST

As to `Cn1ncc2c1c1ccccc1n2C(=O)c1ccccc1` [Compound 1], the melting point fell in the range of 152.6 to 153.2 °C. Moreover, the “displacement of the binding of 3H-OT” value at OTR [1] is “None of compounds 1, 2 or 3 displaced ^3H-OT”. In addition, the “change in OT potency seen in OT dose-response curves (figure legend)” value (shortened to “change in OT potency seen”) at OTR [2] is “improvement in OT potency”. Further, on OTR [2] (Table 2 group), the “Relative Potency” value was determined as 10.4.

`Cn1ncc2c1c1ccccc1n2C(=O)c1cccc(F)c1` [Compound 2] had a melting point of 91.1 to 92.8 °C. The “displacement of the binding of 3H-OT” value on OTR [1] was “None of compounds 1, 2 or 3 displaced ^3H-OT”. Further, the “change in OT potency seen” value at OTR [2] is given as “improvement in OT potency”. The “Relative Potency” value at OTR [2] (Table 2 group) stood at 8.4.

Molecule `Cn1ncc2c1c1ccccc1n2C(=O)C1CCCCC1` [Compound 3] displayed a melting point of 140.3 to 141.2 °C. Moreover, at OTR [3] (OT + 0.01 μM compound 3, relative to 0 μM), the “Relative Potency” value is 0.64. The “Relative Potency” value on OTR [3] (OT + 0.03 μM compound 3, relative to 0 μM) stood at 0.47. The “Relative Potency” value at OTR [3] (OT + 0.3 μM compound 3, relative to 0 μM) is listed as 2.83. The “Relative Potency” value on OTR [3] (OT + 1 μM compound 3, relative to 0 μM) is given as 3.90. The “Relative Potency” value on OTR [3] (OT + 10 μM compound 3, relative to 0 μM) is reported as 19.0. The “displacement of the binding of 3H-OT” value at OTR [1] is recorded as “None of compounds 1, 2 or 3 displaced ^3H-OT”. Also, the “change in OT potency seen” value on OTR [2] was “improvement in OT potency”. Also, the “Relative Potency” value on OTR [2] (Table 2 group) worked out at 5.5.

Molecule `Cc1ccc(C(=O)n2c3ccccc3c3c2cnn3C)cc1` [Compound 4] came in with a melting point of 167 to 169 °C. For the same molecule, at OTR [2], the “change in OT potency seen” value is reported as “improvement in OT potency”. The “Relative Potency” value on OTR [2] (Table 3 group) is on record as 2.9.

As for `Cn1ncc2c1c1ccccc1n2C(=O)c1ccc(Cl)cc1` [Compound 5], the melting point was in the range of 145 to 147 °C. Also, the “change in OT potency seen” value on OTR [2] was “improvement in OT potency”. For the same molecule, the “Relative Potency” value on OTR [2] (Table 3 group) is 3.1.

The molecule `Cn1ncc2c1c1ccccc1n2C(=O)c1ccc(Cl)c(Cl)c1` [Compound 6] returned a melting point of 142 to 143 °C. Also, the “change in OT potency seen” value at OTR [2] is given as “improvement in OT potency”. In addition, the “Relative Potency” value on OTR [2] (Table 3 group) is 2.9.

`COc1ccc(C(=O)n2c3ccccc3c3c2cnn3C)cc1` [Compound 7] yielded a melting point of 136 to 138 °C. In addition, on OTR [2], the “change in OT potency seen” value was “improvement in OT potency”. Also, on OTR [2] (Table 7 group), the “Relative Potency” value amounted to 2.1.

`Cn1ncc2c1c1ccccc1n2C(=O)c1ccc(F)cc1` [Compound 10]: at OTR [2], the “change in OT potency seen” value is recorded as “improvement in OT potency”. For the same molecule, on OTR [2] (Table 7 group), the “Relative Potency” value was found to be 2.5.

Take `Cn1ncc2c1c1ccccc1n2C(=O)C1CCCC1` [Compound 12]: the “change in OT potency seen” value on OTR [2] is given as “improvement in OT potency”. Further, at OTR [2] (Table 4 group), the “Relative Potency” value is on record as 2.3.

With `Cn1ncc2c1c1ccccc1n2C(=O)C1CCCCCC1` [Compound 13], at OTR [2], the “change in OT potency seen” value is recorded as “improvement in OT potency”. Further, at OTR [2] (Table 4 group), the “Relative Potency” value was found to be 2.5.

For `CCCCC(=O)n1c2ccccc2c2c1cnn2C` [Compound 14], at OTR [2], the “change in OT potency seen” value is “improvement in OT potency”. Further, the “Relative Potency” value at OTR [2] (Table 7 group) was found to be 2.6.

Turning to `Cn1ncc2c1c1ccccc1n2C(=O)C1CCOCC1` [Compound 16], the “change in OT potency seen” value on OTR [2] was “improvement in OT potency”. In addition, the “Relative Potency” value on OTR [2] (Table 7 group) is on record as 2.6.

Regarding `Cn1ncc2c1c1ccccc1n2C(=O)C12CC3CC(CC(C3)C1)C2` [Compound 23], the “change in OT potency seen” value at OTR [2] is listed as “improvement in OT potency”. Besides, the “Relative Potency” value on OTR [2] (Table 4 group) is 3.4.

As for `Cn1ncc2c1c1ccccc1n2C(=O)c1cccc2ncccc12` [Compound 29], the “change in OT potency seen” value on OTR [2] is “improvement in OT potency”. In addition, the “Relative Potency” value at OTR [2] (Table 8 group, n = 2) was 2.8.

With `Cn1ncc2c3ccccc3n(C(=O)c3ccccc3)c21` [Compound 31], the “Relative Potency” value on OTR [2] (Table 5 group) is 5.0.

For `Cn1ncc2c3ccccc3n(C(=O)c3cccc(F)c3)c21` [Compound 32], at OTR [2] (Table 5 group), the “Relative Potency” value is recorded as 3.4.

With `Cn1ncc2c3ccccc3n(C(=O)C3CCCCC3)c21` [Compound 33], the “Relative Potency” value on OTR [2] (Table 5 group) is given as 3.7.

With `Cn1ccc2c1c1ccccc1n2C(=O)C1CCCCC1` [Compound 35], the “change in OT potency seen” value on OTR [2] is recorded as “improvement in OT potency”. In addition, on OTR [2] (Table 9 group), the “Relative Potency” value is 3.7.

`Cn1ncc2c1c1ccccc1n2C(=O)N1CCCCC1` [Compound 42]: the “change in OT potency seen” value on OTR [2] is “improvement in OT potency”. Further, the “Relative Potency” value on OTR [2] (Table 6 group) was determined as 2.3.

Take `Cn1ncc2c1c1ccccc1n2S(=O)(=O)C1CCCCC1` [Compound 43]: on OTR [2], the “change in OT potency seen” value is “improvement in OT potency”. In addition, at OTR [2] (Table 6 group), the “Relative Potency” value was found to be 2.6.

In the case of `CC[C@H](C)[C@@H]1NC(=O)[C@H](Cc2ccc(O)cc2)NC(=O)[C@@H](N)CSSC[C@@H](C(=O)N2CCC[C@H]2C(=O)N[C@@H](CC(C)C)C(=O)NCC(N)=O)NC(=O)[C@H](CC(N)=O)NC(=O)[C@H](CCC(N)=O)NC1=O` [OT, Oxytocin], the “affinity of OT at V1aR” value is reported as 78 nM on rat V1aR and 120 nM at human V1aR. In series [4], the half-life in blood is 3 to 8 min. Besides, the “fraction of intranasal OT that enters the brain” value in series [5] is 0.002-0.005%.
